Measured values from BindingDB's records for doi:10.1021/jm990236h (University of Michigan, 2000).

experiment: Antiviral activity was evaluated by Reverse transcriptase activity in cells acutely infected with HIV-1

With `CCCCCCCCCCCC(=O)NC1=NN(C)c2ncnc3c2c1cn3C1O[C@H](CO)[C@@H](O)[C@H]1O` (stereo partly drawn) as the compound, how does the IC50 read?
The IC50 was 1000 nM.

With `CCCCCCCCCC(=O)NC1=NN(C)c2ncnc3c2c1cn3C1O[C@H](CO)[C@@H](O)[C@H]1O` (stereo partly drawn) as the compound, how does the IC50 read?
Its IC50 is 250 nM.

With `CCCCCCCC(=O)NC1=NN(C)c2ncnc3c2c1cn3C1O[C@H](CO)[C@@H](O)[C@H]1O` (stereo partly drawn) as the compound, how does the IC50 read?
Its IC50 is 100 nM.

For `CCCCCCCCC(=O)NC1=NN(C)c2ncnc3c2c1cn3C1O[C@H](CO)[C@@H](O)[C@H]1O` (stereo partly drawn), which IC50 is on record?
The IC50 was 800 nM.

experiment: Antiviral activity was evaluated by RT (reverse transcriptase) activity in cells acutely infected with HIV-1

Which IC50 does the source give for `CN1N=C(NC(=O)c2ccccc2)c2cn(C3O[C@H](CO)[C@@H](O)[C@H]3O)c3ncnc1c23` (stereo partly drawn) here?
Its IC50 is over 100000 nM.

Which IC50 does the source give for `CC(=O)NC1=NN(C)c2ncnc3c2c1cn3C1O[C@H](CO)[C@@H](O)[C@H]1O` (stereo partly drawn) here?
The IC50 was 6800 nM.

Which IC50 does the source give for `CC(C)C(=O)NC1=NN(C)c2ncnc3c2c1cn3C1O[C@H](CO)[C@@H](O)[C@H]1O` (stereo partly drawn) here?
The IC50 was 8000 nM.

For `CCCCCCC(=O)NC1=NN(C)c2ncnc3c2c1cn3C1O[C@H](CO)[C@@H](O)[C@H]1O` (stereo partly drawn), which IC50 is on record?
The IC50 was 35 nM.

Which IC50 does the source give for `CCCC(=O)NC1=NN(C)c2ncnc3c2c1cn3C1O[C@H](CO)[C@@H](O)[C@H]1O` (stereo partly drawn) here?
The IC50 was 500 nM.

For `CCCCCC(=O)NC1=NN(C)c2ncnc3c2c1cn3C1O[C@H](CO)[C@@H](O)[C@H]1O` (stereo partly drawn), which IC50 is on record?
The IC50 was 350 nM.

With `CN1N=C(NC(=O)C(C)(C)C)c2cn(C3O[C@H](CO)[C@@H](O)[C@H]3O)c3ncnc1c23` (stereo partly drawn) as the compound, how does the IC50 read?
The IC50 was over 100000 nM.

Which IC50 does the source give for `CCC(=O)NC1=NN(C)c2ncnc3c2c1cn3C1O[C@H](CO)[C@@H](O)[C@H]1O` (stereo partly drawn) here?
Its IC50 is 8400 nM.

Which IC50 does the source give for `CCCCC(=O)NC1=NN(C)c2ncnc3c2c1cn3C1O[C@H](CO)[C@@H](O)[C@H]1O` (stereo partly drawn) here?
The IC50 was 800 nM.
